Reference: patent US7935824B2, “Ethylenediamine derivatives” (Daiichi Pharmaceutical Co., Ltd., priority 2000, dated 2011)
Counter-ions that a name gives are not always drawn.

These compounds were tested against T1, human FXa (Homo sapiens, UniProt P00742) (assay: Determination of FXa-inhibiting effect (IC50 value), chromogenic substrate S2222). Conditions: 0.05 U/ml human FXa, substrate S2222, absorbance at 405 nm, room temperature, pH 7.4 buffer.
T1 construct: purchased Cosmobio ERL HFXa-1011
Assay type: biochemical

T1 sequence (P00742 235-488 limits assumed): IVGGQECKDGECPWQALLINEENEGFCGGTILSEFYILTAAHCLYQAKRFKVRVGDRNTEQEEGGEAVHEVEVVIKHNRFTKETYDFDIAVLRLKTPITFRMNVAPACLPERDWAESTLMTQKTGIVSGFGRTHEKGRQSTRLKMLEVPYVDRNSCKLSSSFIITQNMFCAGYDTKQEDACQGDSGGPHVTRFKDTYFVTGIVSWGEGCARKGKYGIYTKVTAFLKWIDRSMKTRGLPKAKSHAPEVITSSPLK
T1 sequence (P00742 41-179 partner limits assumed): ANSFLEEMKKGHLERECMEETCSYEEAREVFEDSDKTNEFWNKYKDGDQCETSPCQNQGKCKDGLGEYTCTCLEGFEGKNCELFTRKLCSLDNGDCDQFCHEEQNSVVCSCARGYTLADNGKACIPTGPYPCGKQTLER

| Compound | IC50 [nM] |
| --- | --- |
| CN1CCc2nc(C(=O)N[C@@H]3CCC[C@H]3NC(=O)c3cc4cc(Cl)ccc4[nH]3)sc2C1 (racemic) [Example 3, (±)-trans-N^1-[(5-Chloroindol-2-yl)carbonyl]-N^2-[(5-methyl-4,5,6,7-tetrahydrothiazolo[5,4-c]pyridin-2-yl)carbonyl]-1,2-cyclopentanediamine hydrochloride] | 86 |
| CC(C)(CO)N1CCc2nc(C(=O)N[C@@H]3CC(CO)C[C@H]3NC(=O)c3cc4cc(Cl)ccc4[nH]3)sc2C1 (single isomer, unassigned; stereoisomer b) [Example 70, (1R*,2R*)-N^1-[(5-Chloroindol-2-yl)carbonyl]-N^2-[5-(1-dimethyl-2-hydroxyethyl)-4,5,6,7-tetrahydrothiazolo-[5,4-c]pyridin-2-yl)carbonyl]-4-hydroxymethyl-1,2-cyclopentanediamine hydrochloride (Stereoisomer B)] | 2.7 |
| CN1CCc2nc(C(=O)N[C@@H]3C[C@@H](CO)CC[C@H]3NC(=O)c3cc4cc(Cl)ccc4[nH]3)sc2C1 [Example 176, (1R,2R,4S)—N^1-[(5-Chloroindol-2-yl)carbonyl]-4-hydroxymethyl-N^2-[(5-methyl-4,5,6,7-tetrahydrothiazolo[5,4-c]pyridin-2-yl)carbonyl]-1,2-cyclohexanediamine] | 3.3 |
| CN1Cc2nc(C(=O)N[C@@H]3CCCC[C@@H]3NC(=O)c3cc4cc(Cl)ccc4[nH]3)sc2C1 (racemic) [Example 41, (±)-cis-N^1-[(5-Chloroindol-2-yl)carbonyl]-N^2-[(5-methyl-4,6-dihydro-5H-pyrrolo[3,4-d]thiazol-2-yl)carbonyl]-1,2-cyclohexanediamine hydrochloride] | 36 |
| CN1CCc2nc(C(=O)N[C@@H]3CCCC[C@@H]3NC(=O)c3ccc4cc(Cl)ccc4c3)sc2C1 (racemic) [Example 10, (±)-cis-N^1-[(6-Chloronaphthalen-2-yl)carbonyl]-N^2-[(5-methyl-4,5,6,7-tetrahydrothiazolo[5,4-c]pyridin-2-yl)-carbonyl]-1,2-cyclohexanediamine hydrochloride] | 83 |
| CN1CCc2nc(C(=O)N[C@@H]3CCCC[C@@H]3NC(=O)c3cc4cc(Br)ccc4[nH]3)sc2C1 (racemic) [Example 15, (±)-cis-N^1-[(5-Bromoindol-2-yl)carbonyl]-N^2-[(5-methyl-4,5,6,7-tetrahydrothiazolo[5,4-c]pyridin-2-yl)carbonyl]-1,2-cyclohexanediamine hydrochloride] | 92 |
| CC(C)N1CCc2nc(C(=O)N[C@@H]3CC(CO)C[C@H]3NC(=O)c3cc4cc(Cl)ccc4[nH]3)sc2C1 (single isomer, unassigned; stereoisomer b) [Example 68, (1R*,2R*)-N^1-[(5-Chloroindol-2-yl)carbonyl]-4-hydroxymethyl-N^2-[(5-isopropyl-4,5,6,7-tetrahydro-thiazolo[5,4-c]pyridin-2-yl)carbonyl]-1,2-cyclopentanediamine hydrochloride (Stereoisomer B)] | 4.1 |
| (±)-cis-N^1(or N^2)-[(5-Chloroindol-2-yl)carbonyl]-4,4-(1,2-ethylenedioxy)-N^2(or N^1)-[(5-methyl-4,5,6,7-tetrahydrothiazolo[5,4-c]pyridin-2-yl)carbonyl]-1,2-cyclohexanediamine [Example 167] | 1.4 |
